≈ marks a conversion by molar mass, not a printed value.

For assay [1], the system named is Staphylococcus aureus S13E. The format is cell-based. On the procedure:
(§1) The MIC's were determined using a standard broth micro-dilution assay.

Assay [2] deals with Staphylococcus aureus SA1199B. It is filed as cell-based. On the procedure:
as §1

In assay [3] the test system is Entercoccus faecium 180-1. Description: broth micro-dilution MIC. It is filed as cell-based. On the procedure: as §1
In another assay the test system is Entercoccus faecium 276. Description: broth micro-dilution MIC. It is filed as cell-based. On the procedure: as §1
Assay [4] deals with Staphylococcus aureus 446. Description: broth micro-dilution MIC. It is filed as cell-based. On the procedure: as §1
The test system of assay [5] is Staphylococcus aureus 447. Description: broth micro-dilution MIC. The format is cell-based. On the procedure:
as §1

Assay [6] relates to Staphylococcus aureus 489. Description: broth micro-dilution MIC. It is filed as cell-based. On the procedure: as §1
Assay [7] has as its system Staphylococcus aureus 491. Description: broth micro-dilution MIC. The format is cell-based. On the procedure: as §1
Assay [8] deals with Staphylococcus aureus SA1199A. Description: broth micro-dilution MIC. It is filed as cell-based. On the procedure:
as §1

The subject of assay [9] is Staphylococcus aureus SA1199. Description: broth micro-dilution MIC. It is filed as cell-based. On the procedure: as §1
Assay [10] deals with Staphylococcus aureus X400. Description: broth micro-dilution MIC. It is filed as cell-based. On the procedure: as §1
The subject of assay [11] is Staphylococcus aureus X778. Description: broth micro-dilution MIC. It is filed as cell-based. On the procedure:
as §1

Assay [12] deals with Streptococcus pyogenes C203. Description: broth micro-dilution MIC. The format is cell-based. On the procedure: as §1
The subject of another assay is Entercoccus faecium 180. Description: broth micro-dilution MIC. The note with it: Entercoccus faecium 180. It is filed as cell-based. On the procedure:
(§2) The formula I compounds have in vitro and in vivo activity against Gram-positive pathogenic bacteria. The MIC's were determined using a standard broth micro-dilution assay.

The subject of another assay is Entercoccus faecium 2041. Description: broth micro-dilution MIC. The format is cell-based. The following applies: Entercoccus faecium 2041. On the procedure: as §2
Assay [13] deals with Enterococcus gallinarum 245. Description: broth micro-dilution MIC. The format is cell-based. The following applies: Enterococcus gallinarum 245. On the procedure: as §2
Another assay deals with Escherichia coli EC14. Description: broth micro-dilution MIC. The format is cell-based. On the procedure: as §2
Assay [14] relates to Haemophilus influenzae RD. Description: broth micro-dilution MIC. The format is cell-based. The following applies: Haemophilus influenzae RD. On the procedure:
as §2

Assay [15] concerns Staphylococcus epidermidis 270. Description: broth micro-dilution MIC. It is filed as cell-based. On the procedure: as §2
Assay [16] has as its system Staphylococcus haemolyticus 105. Description: broth micro-dilution MIC. The format is cell-based. On the procedure:
as §2

Assay [17] deals with Staphylococcus haemolyticus 415. Description: broth micro-dilution MIC. The format is cell-based. On the procedure:
as §2

Assay [18] relates to Streptococcus pneumoniae P1. Description: broth micro-dilution MIC. It is filed as cell-based. On the procedure: as §2
Assay [19] concerns vancomycin-resistant enterococci. Description: broth micro-dilution, mean geometric MIC. The note with it: enterococci, 24-hour incubation. The format is cell-based, Enterococcus faecium and Enterococcus faecalis.
For assay [20], the system named is vancomycin-susceptible enterococci. Description: broth micro-dilution, mean geometric MIC. The format is cell-based, Enterococcus faecium and Enterococcus faecalis. The following applies: enterococci, 24-hour incubation.

`COc1ccc2ccccc2c1CNC1(C)CC(OC2C(Oc3c4cc5cc3Oc3ccc(cc3Cl)C(OC3CC(C)(N)C(O)C(C)O3)C3NC(=O)C(NC(=O)C5NC(=O)C(CC(N)=O)NC(=O)C(NC(=O)C(CC(C)C)N(C)Cc5c(OC)ccc6ccccc56)C(O)c5ccc(c(Cl)c5)O4)c4ccc(O)c(c4)-c4c(O)cc(O)cc4C(C(=O)O)NC3=O)OC(CO)C(O)C2O)OC(C)C1O` (stereo not drawn) [Compound 282]: the MIC in assay [1] was 16 µg/mL (≈ 8.28 µM); in assay [2], 16 µg/mL (≈ 8.28 µM); in assay [3], 1 µg/mL (≈ 0.517 µM); in the assay on Entercoccus faecium 276, 4 µg/mL (≈ 2.07 µM); in [4], 32 µg/mL (≈ 16.6 µM); in [5] it was over 64 µg/mL. The MIC in [6] turned out to be 8 µg/mL (≈ 4.14 µM); in assay [7], 16 µg/mL (≈ 8.28 µM); in assay [8] it was 1 µg/mL (≈ 0.517 µM); in assay [9] it was 16 µg/mL (≈ 8.28 µM); in [10], 16 µg/mL (≈ 8.28 µM); in [11] it was 16 µg/mL (≈ 8.28 µM). The MIC in [12] is at most 0.06 µg/mL; in the assay on Entercoccus faecium 180, 32 µg/mL (≈ 16.6 µM); in the assay on Entercoccus faecium 2041 it was 4 µg/mL (≈ 2.07 µM); in [13] it was over 64 µg/mL; in the assay with Escherichia coli EC14, over 64 µg/mL; in [14], over 64 µg/mL. In addition, the MIC in [15] is over 64 µg/mL; in [16], over 64 µg/mL; in assay [17], over 64 µg/mL; in assay [18] it was at most 0.06 µg/mL. Besides, in assay [19], the “mean geometric MIC, Vancomycin Resistant Strains” value is 45 µg/mL. Also, the “mean geometric MIC, Vancomycin Sensitive Strains” value in [20] worked out at 2.6 µg/mL.

`CNC(CC(C)C)C(=O)NC1C(=O)NC(CC(N)=O)C(=O)NC2C(=O)NC3C(=O)NC(C(=O)NC(C(=O)O)c4cc(O)cc(O)c4-c4cc3ccc4O)C(OC3CC(C)(NCc4c5ccccc5c(C)c5ccccc45)C(O)C(C)O3)c3ccc(c(Cl)c3)Oc3cc2cc(c3OC2OC(CO)C(O)C(O)C2OC2CC(C)(NCc3c4ccccc4c(C)c4ccccc34)C(O)C(C)O2)Oc2ccc(cc2Cl)C1O` (stereo not drawn) [Compound 283]: the MIC in [1] stood at 4 µg/mL (≈ 2 µM); in [2] it was 32 µg/mL (≈ 16 µM); in assay [3], 0.125 µg/mL (≈ 0.0625 µM); against Entercoccus faecium 276, 16 µg/mL (≈ 8 µM); in [4], 16 µg/mL (≈ 8 µM); in assay [5], 32 µg/mL (≈ 16 µM). Moreover, the MIC in assay [6] is 8 µg/mL (≈ 4 µM); in assay [7], 4 µg/mL (≈ 2 µM); in assay [8], 4 µg/mL (≈ 2 µM); in assay [9], 32 µg/mL (≈ 16 µM); in assay [10], 16 µg/mL (≈ 8 µM); in [11] it was 8 µg/mL (≈ 4 µM). Moreover, the MIC in assay [12] is at most 0.06 µg/mL; against Entercoccus faecium 180, 4 µg/mL (≈ 2 µM); with Entercoccus faecium 2041, 2 µg/mL (≈ 0.999 µM); in assay [13] it was 32 µg/mL (≈ 16 µM); in the assay with Escherichia coli EC14, over 64 µg/mL; in assay [14] it was over 64 µg/mL. The MIC in assay [15] was 16 µg/mL (≈ 8 µM); in assay [16], over 64 µg/mL; in [17], 32 µg/mL (≈ 16 µM); in assay [18] it was at most 0.06 µg/mL. Moreover, the “mean geometric MIC, Vancomycin Resistant Strains” value in assay [19] is 32 µg/mL. Moreover, the “mean geometric MIC, Vancomycin Sensitive Strains” value in assay [20] came to 1.7 µg/mL.

Regarding `CC(C)CC(C(=O)NC1C(=O)NC(CC(N)=O)C(=O)NC2C(=O)NC3C(=O)NC(C(=O)NC(C(=O)O)c4cc(O)cc(O)c4-c4cc3ccc4O)C(OC3CC(C)(N)C(O)C(C)O3)c3ccc(c(Cl)c3)Oc3cc2cc(c3OC2OC(CO)C(O)C(O)C2OC2CC(C)(NCc3c4ccccc4cc4ccccc34)C(O)C(C)O2)Oc2ccc(cc2Cl)C1O)N(C)Cc1c2ccccc2cc2ccccc12` (stereo not drawn) [Compound 284], the MIC turned out to be 4 µg/mL (≈ 2.03 µM) in assay [1]; 4 µg/mL (≈ 2.03 µM) in assay [2]; 0.5 µg/mL (≈ 0.253 µM) in assay [3]; 8 µg/mL (≈ 4.05 µM) in the assay with Entercoccus faecium 276; 8 µg/mL (≈ 4.05 µM) in assay [4]; 8 µg/mL (≈ 4.05 µM) in assay [5]. The MIC in assay [6] is 2 µg/mL (≈ 1.01 µM); in assay [7], 2 µg/mL (≈ 1.01 µM); in [8], 0.25 µg/mL (≈ 0.127 µM); in [9], 8 µg/mL (≈ 4.05 µM); in assay [10] it was 4 µg/mL (≈ 2.03 µM); in [11] it was 1 µg/mL (≈ 0.507 µM). Further, the MIC in assay [12] is at most 0.06 µg/mL; in the assay on Entercoccus faecium 180 it was 8 µg/mL (≈ 4.05 µM); against Entercoccus faecium 2041, 1 µg/mL (≈ 0.507 µM); in assay [13], 32 µg/mL (≈ 16.2 µM); against Escherichia coli EC14, over 64 µg/mL; in assay [14] it was over 64 µg/mL. In addition, the MIC was 16 µg/mL (≈ 8.11 µM) in assay [15], 32 µg/mL (≈ 16.2 µM) in [16], 32 µg/mL (≈ 16.2 µM) in assay [17] and at most 0.06 µg/mL in assay [18]. For the same compound, in [19], the “mean geometric MIC, Vancomycin Resistant Strains” value was determined as 38 µg/mL. Moreover, the “mean geometric MIC, Vancomycin Sensitive Strains” value in assay [20] worked out at 2.3 µg/mL.

As to `CC(C)CC(C(=O)NC1C(=O)NC(CC(N)=O)C(=O)NC2C(=O)NC3C(=O)NC(C(=O)NC(C(=O)O)c4cc(O)cc(O)c4-c4cc3ccc4O)C(OC3CC(C)(N)C(O)C(C)O3)c3ccc(c(Cl)c3)Oc3cc2cc(c3OC2OC(CO)C(O)C(O)C2OC2CC(C)(NCc3ccc4ccccc4n3)C(O)C(C)O2)Oc2ccc(cc2Cl)C1O)N(C)Cc1ccc2ccccc2n1` (stereo not drawn) [Compound 285], the MIC in assay [1] is 1 µg/mL (≈ 0.533 µM); in [2] it was 1 µg/mL (≈ 0.533 µM); in assay [3], 0.25 µg/mL (≈ 0.133 µM); against Entercoccus faecium 276 it was 0.5 µg/mL (≈ 0.267 µM); in assay [4] it was 4 µg/mL (≈ 2.13 µM); in [5], 32 µg/mL (≈ 17.1 µM). In addition, the MIC in assay [6] came to 1 µg/mL (≈ 0.533 µM); in [7] it was 4 µg/mL (≈ 2.13 µM); in [8], 0.25 µg/mL (≈ 0.133 µM); in assay [9], 2 µg/mL (≈ 1.07 µM); in assay [10], 4 µg/mL (≈ 2.13 µM); in assay [11], 1 µg/mL (≈ 0.533 µM). In addition, the MIC in [12] is at most 0.06 µg/mL; against Entercoccus faecium 180 it was 16 µg/mL (≈ 8.53 µM); with Entercoccus faecium 2041 it was 0.5 µg/mL (≈ 0.267 µM); in assay [13], 16 µg/mL (≈ 8.53 µM); in the assay on Escherichia coli EC14, over 64 µg/mL; in assay [14], over 64 µg/mL. In addition, the MIC was 8 µg/mL (≈ 4.27 µM) in assay [15], 16 µg/mL (≈ 8.53 µM) in assay [16], 16 µg/mL (≈ 8.53 µM) in [17] and at most 0.06 µg/mL in [18]. In assay [19], the “mean geometric MIC, Vancomycin Resistant Strains” value stood at 90 µg/mL. Further, in assay [20], the “mean geometric MIC, Vancomycin Sensitive Strains” value worked out at 2.4 µg/mL.

With `CC(C)CC(C(=O)NC1C(=O)NC(CC(N)=O)C(=O)NC2C(=O)NC3C(=O)NC(C(=O)NC(C(=O)O)c4cc(O)cc(O)c4-c4cc3ccc4O)C(OC3CC(C)(NCc4cccc5c([N+](=O)[O-])cccc45)C(O)C(C)O3)c3ccc(c(Cl)c3)Oc3cc2cc(c3OC2OC(CO)C(O)C(O)C2OC2CC(C)(N)C(O)C(C)O2)Oc2ccc(cc2Cl)C1O)N(C)Cc1cccc2c([N+](=O)[O-])cccc12` (stereo not drawn) [Compound 286], the MIC in assay [1] was 4 µg/mL (≈ 2.04 µM); in [2], 4 µg/mL (≈ 2.04 µM); in assay [3], 0.25 µg/mL (≈ 0.127 µM); against Entercoccus faecium 276 it was 1 µg/mL (≈ 0.509 µM); in assay [4], 1 µg/mL (≈ 0.509 µM); in [5] it was 8 µg/mL (≈ 4.08 µM). Moreover, the MIC in assay [6] is 2 µg/mL (≈ 1.02 µM); in [7], 2 µg/mL (≈ 1.02 µM); in assay [8] it was at most 0.06 µg/mL; in assay [9], 2 µg/mL (≈ 1.02 µM); in assay [10], 2 µg/mL (≈ 1.02 µM); in [11], 4 µg/mL (≈ 2.04 µM). For the same compound, the MIC is at most 0.06 µg/mL in assay [12]; 8 µg/mL (≈ 4.08 µM) in the assay on Entercoccus faecium 180; 1 µg/mL (≈ 0.509 µM) in the assay on Entercoccus faecium 2041; 4 µg/mL (≈ 2.04 µM) in [13]; over 64 µg/mL with Escherichia coli EC14; over 64 µg/mL in [14]. For the same compound, the MIC in assay [15] is 4 µg/mL (≈ 2.04 µM); in assay [16] it was 8 µg/mL (≈ 4.08 µM); in [17], 4 µg/mL (≈ 2.04 µM); in assay [18], at most 0.06 µg/mL. In addition, in assay [19], the “mean geometric MIC, Vancomycin Resistant Strains” value is 19 µg/mL. Further, in [20], the “mean geometric MIC, Vancomycin Sensitive Strains” value was found to be 1.1 µg/mL.

For the origin of these results see patent US5840684A, “Glycopeptide antibiotic derivatives” (Eli Lilly and Company, priority 1995, dated 1998).
